Assay results: ChEMBL document CHEMBL4364281, “Design of wogonin-inspired selective cyclin-dependent kinase 9 (CDK9) inhibitors with potent in vitro and in vivo antitumor activity” (Eur J Med Chem, 2019)

What was measured:
[1] = Antiproliferative activity against human BGC803 cells assessed as reduction in cell viability after 72 hrs by MTT assay; type: functional, cell-based; details: BGC803, 72 h
THP-1 = experiment: Antiproliferative activity against human THP1 cells assessed as reduction in cell viability after 72 hrs by MTT assay; type: functional, cell-based; details: THP-1, 72 h
A549 = experiment: cells; details: Homo sapiens, A549, 72 h
Description: Antiproliferative activity against human A549 cells assessed as reduction in cell viability after 72 hrs by MTT assay

MV4-11 [2] = experiment: Cell cycle arrest in human MV4-11 cells assessed as accumulation at S phase at 0.25 uM after 24 hrs propidium iodide staining based flow cytometry (reference value: 26.06%); type: functional
HT-29 = experiment: Antiproliferative activity against human HT-29 cells assessed as reduction in cell viability after 72 hrs by MTT assay; type: functional, cell-based; details: HT-29, 72 h
HepG2 = experiment: cells; details: Homo sapiens, HepG2, 72 h
Description: Antiproliferative activity against human HepG2 cells assessed as reduction in cell viability after 72 hrs by MTT assay

SW480 = experiment: Antiproliferative activity against human SW480 cells assessed as reduction in cell viability after 72 hrs by MTT assay; type: functional, cell-based; details: SW480, 72 h
L02 = experiment: Cytotoxicity against human LO2 cells assessed as reduction in cell viability after 72 hrs by MTT assay; type: cell-based; details: L02, 72 h
MV4-11 [3] = experiment: Induction of apoptosis in human MV4-11 cells assessed as late apoptotic cells at 0.25 uM after 24 hrs by Annexin-V/propidium iodide staining based flow cytometric method (reference value: 0.07%); type: functional
BT-549 = experiment: Antiproliferative activity against human BT549 cells assessed as reduction in cell viability after 72 hrs by MTT assay; type: functional, cell-based; details: BT-549, 72 h
MV4-11 [4] = experiment: Induction of apoptosis in human MV4-11 cells assessed as necrotic cells at 1.25 uM after 24 hrs by Annexin-V/propidium iodide staining based flow cytometric method (reference value: 2.64%); type: functional
MV4-11 [5] = experiment: Induction of apoptosis in human MV4-11 cells assessed as necrotic cells at 0.25 uM after 24 hrs by Annexin-V/propidium iodide staining based flow cytometric method (reference value: 2.64%); type: functional
[6] = Toxicity in BALB/c mouse assessed as mortality at 15 to 45 mg/kg, iv administered every other day for 21 days; type: organism-based; details: in vivo, 504 h
MV4-11 [7] = experiment: Cell cycle arrest in human MV4-11 cells assessed as accumulation at G2 phase at 0.25 uM after 24 hrs propidium iodide staining based flow cytometry (reference value: 22.73%); type: functional

For `COc1cc(O)c2c(=O)cc(-c3ccc(N4CCN(C)CC4)cc3)oc2c1Oc1c(C)n[nH]c1C`, the IC50 [1] was 3120 nM, the IC50 (THP-1) was 790 nM and the IC50 (A549) was 1810 nM. For the same compound, the Activity (MV4-11 [2]) was 30.91%, the IC50 (HT-29) was 1800 nM and the IC50 (HepG2) was 2670 nM. The IC50 (SW480) was 1860 nM, the IC50 (L02) was 15100 nM and the Activity (MV4-11 [3]) was 7.29%. The IC50 (BT-549) was 1850 nM, the Activity (MV4-11 [4]) was 6.46% and the Activity (MV4-11 [5]) was 7.72%. For the same compound, the Activity [6] was “Non-Toxic” and the Activity (MV4-11 [7]) was 13.32%.
